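Cultured in 96-well plates, cells were exposed to test compound for 48 hours across five concentrations. GI50 is the concentration that inhibits growth by half.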 Active and inactive are the calls of the source. Cut-off read from the data, not from the text of the source: active = GI50 up to about 1.1 µM and inactive = higher.
Assays:
Assay in all cases: NCI tumour cell line growth inhibition, 48 h
A549 = system: A549
BT-549 = system: BT-549
CAKI-1 = system: CAKI-1
COLO 205 = system: COLO 205
DU-145 = system: DU-145
HL-60 = system: HL-60
HOP-62 = system: HOP-62
KM12 = system: KM12
MCF7 = system: MCF7
MOLT-4 = system: MOLT-4
NCI-H23 = system: NCI-H23
OVCAR-8 = system: OVCAR-8
PC-3 = system: PC-3
RPMI-8226 = system: RPMI-8226
SF-268 = system: SF-268
SNB-19 = system: SNB-19
SW-620 = system: SW-620
UACC-257 = system: UACC-257
UACC-62 = system: UACC-62
NCI-H226 = system: NCI-H226

Structure (SMILES) | GI50 (A549) | GI50 (BT-549) | GI50 (CAKI-1) | GI50 (COLO 205) | GI50 (DU-145) | GI50 (HL-60) | GI50 (HOP-62) | GI50 (KM12) | GI50 (MCF7) | GI50 (MOLT-4) | GI50 (NCI-H23) | GI50 (OVCAR-8) | GI50 (PC-3) | GI50 (RPMI-8226) | GI50 (SF-268) | GI50 (SNB-19) | GI50 (SW-620) | GI50 (UACC-257) | GI50 (UACC-62) | GI50 (NCI-H226)
S=C(N/N=C/c1ccccn1)N1CCCCC1 | < 0.0129 µM (active) | 0.0249 µM (active) | < 0.0153 µM (active) | < 0.01 µM (active) | 0.243 µM (active) | < 0.01 µM (active) | < 0.01 µM (active) | < 0.0262 µM (active) | < 0.01 µM (active) | < 0.01 µM (active) | < 0.01 µM (active) | < 0.01 µM (active) | < 0.01 µM (active) | < 0.01 µM (active) | < 0.0178 µM (active) | 1.23 µM (inactive) | < 0.0122 µM (active) | < 0.01 µM (active) | 0.0497 µM (active) | –
COc1cc(/C=C2\N=C(c3ccccc3)N(c3nc4c(Cl)cc(Cl)cc4s3)C2=O)ccc1O | 30.8 µM (inactive) | 21.1 µM (inactive) | 46.3 µM (inactive) | 43.4 µM (inactive) | 34.8 µM (inactive) | 16.3 µM (inactive) | 32 µM (inactive) | 25.4 µM (inactive) | 28.1 µM (inactive) | 0.059 µM (active) | – | 31.8 µM (inactive) | 19.5 µM (inactive) | 8.53 µM (inactive) | 30.1 µM (inactive) | 36.6 µM (inactive) | 32.4 µM (inactive) | 30.9 µM (inactive) | 25.8 µM (inactive) | –
O=C(Cn1cc(-c2ccccc2)nn1)NC1CCCCC1 | > 100 µM (inactive) | > 100 µM (inactive) | > 100 µM (inactive) | > 100 µM (inactive) | > 100 µM (inactive) | > 100 µM (inactive) | > 100 µM (inactive) | > 100 µM (inactive) | > 100 µM (inactive) | > 100 µM (inactive) | > 100 µM (inactive) | > 100 µM (inactive) | > 100 µM (inactive) | > 100 µM (inactive) | > 100 µM (inactive) | > 100 µM (inactive) | > 100 µM (inactive) | > 100 µM (inactive) | – | > 100 µM (inactive)
O=C1C=C2CO[C@H]3OC[C@H](O)[C@@H]1[C@@H]23 | > 100 µM (inactive) | 53.1 µM (inactive) | 29 µM (inactive) | 16.4 µM (inactive) | > 100 µM (inactive) | 23.6 µM (inactive) | > 100 µM (inactive) | > 100 µM (inactive) | 43.2 µM (inactive) | 28.9 µM (inactive) | > 100 µM (inactive) | 32 µM (inactive) | > 100 µM (inactive) | 20.4 µM (inactive) | 36.2 µM (inactive) | > 100 µM (inactive) | 30.1 µM (inactive) | 29.8 µM (inactive) | 67.5 µM (inactive) | –
Clc1cc(OC23CC4CC(CC(C4)C2)C3)nc(Cl)n1 | > 100 µM (inactive) | > 100 µM (inactive) | 1.94 µM (inactive) | 56.6 µM (inactive) | 55.7 µM (inactive) | 10 µM (inactive) | > 100 µM (inactive) | > 100 µM (inactive) | 55.7 µM (inactive) | 34 µM (inactive) | 58.7 µM (inactive) | > 100 µM (inactive) | > 100 µM (inactive) | 37.9 µM (inactive) | 69.8 µM (inactive) | > 100 µM (inactive) | 41.2 µM (inactive) | 39 µM (inactive) | 52.4 µM (inactive) | –
COC1CC2CCC(C)[C@](O)(O2)C(=O)C(=O)N2CCCCC2C(=O)OC(C(C)CC2CCC(O)C(OC)C2)CC(=O)C(C)C=C(C)C(OC(=O)CN(C)C)C(OC)C(=O)C(C)CC(C)/C=C/C=C/C=C\1C (some centres not stated) | 11 µM (inactive) | < 0.01 µM (active) | – | 11.3 µM (inactive) | 7.38 µM (inactive) | 2 µM (inactive) | < 0.01 µM (active) | 9.59 µM (inactive) | < 0.01 µM (active) | < 0.01 µM (active) | 10.9 µM (inactive) | 0.403 µM (active) | < 0.01 µM (active) | < 0.01 µM (active) | 7.19 µM (inactive) | < 0.01 µM (active) | – | 11.3 µM (inactive) | < 0.01 µM (active) | 10.3 µM (inactive)
